pIC50: −log10 of the molar value. Where two headings read alike, the source gives them in different places.
Columns and labels:
Huh7 [1] = assay: Real-time cell electronic sensing (RT-CES) growth analysis, Huh7; format: cell-based; details: Homo sapiens, Huh-7
Method: (§1) The selected 3 compounds were further analyzed with real-time cell electronic sensing (RT-CES) system to assess the real-time growth behavior of the cells treated with the compounds. Huh7 and Mahlavu liver cancer cells were treated with the selected chalcones and monitored with RT-CES. Results of the compounds were normalized to data of negative control DMSO.
(§2) Figure 2 Real-time cell growth analysis. Human liver cancer cells Huh7 (left panel) and Mahlavu (right panel) were treated with the selected compounds. Cell index measurements were obtained by RT-CES software. DMSO was used as negative control. (A) The growth inhibition values of the compounds were obtained by the normalization with DMSO. Experiments were performed in triplicate. (B) IC50 values calculated from RT-CES experiment data. TEXT PRINTED IN THE PICTURE: (B) 1: Huh7 24h: 3.7; Huh7 72h: 5.2; Mahlavu 24h: 1.2; Mahlavu 72h: 2.3 | (B) 9: Huh7 24h: 16.1; Huh7 72h: 11.5; Mahlavu 24h: 4.9; Mahlavu 72h: 6.8 | (B) 11: Huh7 24h: 8.7; Huh7 72h: 8.8; Mahlavu 24h: 4.9; Mahlavu 72h: 6.8 DOUBTS OF THE COPYIST ABOUT THIS PICTURE: Panel B table: the picture prints no measure and no unit for the values
(§3) Huh7 and Mahlavu cells were inoculated into the e-plate (1000–2000 cells/well). The attachment, spreading, and proliferation of the cells were monitored every 30 minutes using the Xcelligence® Real-Time Cell Analysis system (ACEA Biosciences Inc.) in a cell culture incubator. […] When cells reach to an cell index (CI) impedance values about 1.5 usually in 24 hours cells were treated with the chalcones 1, 9 and 11. DMSO was used as a negative control. Each experiment was repeated three times. The CI value was noted every 10 minutes for the first 24 hours and then every 30 minutes upon chalcone treatments. The cell inhibition rate calculated as follows (%)=[1-(CItreatedcells/CIDMSO)]×100 .

[2] = system: pRb (Ser807/811) in Mahlavu cells; assay: Western blot, phosphorylated Rb protein levels; format: cell-based, human; details: IC50 concentrations, 24 h
Method: Figure 4 Proteins targeted by the compounds. Human liver cancer cells (Mahlavu) were treated with the IC50 concentrations of the selected compounds or DMSO control for 24 h. […] (B–D) Quantification of the results using ImageJ software. (E) Schematic representation of the molecular mechanism of action of the compounds. Blocked signaling is crossed.
In the literature, it was shown that the anti-cancer effect of chalcones on uterus leiomyoma cells was through an increase in p21 protein[35]. Thus we also examined the levels of p21 in our cells. Furthermore, p21 is also a downstream element of Akt pathway. […] Therefore, the effect on Rb protein, which is also a downstream element of p21, was investigated in the presence of the chalcones 1, 9 and 11.
Poorly differentiated liver cancer cell line Mahlavu cells were cultured in 100 mm culture dish for 24 h. […] Anti-PARP antibody (Cell Signaling, 9532), pAkt (Ser473) antibody (Cell Signaling, 9271), Akt antibody (Cell Signaling, 9272), pNFkB-p65 (Ser468) antibody (Snat Cruz, sc101750), p21 antibody (Millipore, 05345), pRb (Ser807/811) antibody (Cell Signaling, 9308), Rb antibody (Santa Cruz, sc102), actin antibody (Sigma, A5441) and calnexin antibody (Sigma, C4731) were used as primary antibodies. Anti-rabbit (6154) and anti-mouse (0168) secondary antibodies were used. ImageJ tool ([42]) used for protein band intensity comparison. […]

Huh7 [3] = assay: NCI-60 sulforhodamine B (SRB) cytotoxicity assay, Huh7; format: cell-based, human; details: Homo sapiens, read-out: IC50 Huh7
Method: (§4) The bioactivities of the synthesized chalcones were assessed on human liver cancer cell lines and on DPSCs with NCI-SRB assay in vitro. DPSCs used to asses the bioactivity of chalcones on untransformed control cells with the potential of hepatic lineage. […] We also included 5-Fluorouracil which is used in clinics for gastrointestinal cancers and Sorafenib. All results were normalized to DMSO negative control measurements. The experiment was performed in triplicate.
(§5) Well differentiated human primary liver cancer cell lines Huh7, HepG2 and Hep3B, and poorly differentiated Mahlavu, FOCUS and SNU475 HCC cells were cultured in Dulbecco’s Modified Eagle’s Standard (DMEM) medium supplemented with 10% Fetal Bovine Serum (FBS), 100 units/mL penicillin and 100 µg/mL streptomycin (Gibco, Invitrogen, Carlsbad, CA, USA). 0.1 mM nonessential amino acids (NEAA) which are specific to HCC cell lines also added to culture media. Cells were cultured in a 5% CO2 incubator at 37^∘C
(§6) Primary liver cancer cells Huh7, HepG2, Hep3B, Mahlavu, FOCUS, Snu475 along with hepatic progenitor Dental pulp stem cells were seeded into 96-well plates (1,000–3,000 HCC cell/well and 10,000 cells DPSC/well ) for 24 h. The cells were then treated with increasing concentrations of the chalcones ( 2.5-40μM ). DMSO (AppliChem Biochemica, Darmstadt, Germany) was used as negative control. The growth has stopped at the end of 72 h by fixing cold with 10% (v/v) trichloroacetic acid (Merck, Schuchardt, Germany). Cells were then stained with 0.4% (m/v) of sulforhodamine (Sigma-Aldrich, St. Louis, USA) in 1% acetic acid solution. The absorbency values were acquired at 515 nm. All experiments were done in triplicate.

HepG2 = assay: NCI-60 sulforhodamine B (SRB) cytotoxicity assay, HepG2; format: cell-based, human; details: Homo sapiens, HepG2; SRB, 72 h, 2.5–40 μM, triplicate; read-out: IC50 HepG2
Method: as §4, §5
as §6, with “The absorbency values were acquired at 515 nm.” left out

FOCUS = assay: NCI-60 sulforhodamine B (SRB) cytotoxicity assay, FOCUS; format: cell-based, human; details: Homo sapiens; SRB, 72 h, 2.5–40 μM, triplicate; read-out: IC50 FOCUS
Method: as §4, §5
as §6, with “The absorbency values were acquired at 515 nm.” left out

Mahlavu = assay: Real-time cell electronic sensing (RT-CES) growth analysis, Mahlavu; format: cell-based; details: Homo sapiens
Method: as §1, §2, §3

[4] = Huh7, 24h, read-out: IC50 values calculated from RT-CES experiment data, Huh7 24h
[5] = Huh7, 72h, read-out: IC50 values calculated from RT-CES experiment data, Huh7 72h
[6] = Huh-7, SRB, 72 h, 2.5–40 μM, triplicate
[7] = 24h, read-out: IC50 values calculated from RT-CES experiment data, Mahlavu 24h
[8] = 72h, read-out: IC50 values calculated from RT-CES experiment data, Mahlavu 72h

In the case of `O=C(/C=C/c1ccc(Cl)cc1)c1ccccc1` [compound 11], the pIC50 (Huh7 [1]; [4]) was 5.06, the pIC50 (Huh7 [1]; [5]) was 5.06 and the “phosphorylated Rb protein levels” value [2] was “decreased significantly”. It also gave a pIC50 (Huh7 [3]; [6]) of 5.37, a pIC50 (HepG2) of 5.19 and a pIC50 (FOCUS) of 5.51. The pIC50 (Mahlavu; [7]) was 5.31 and the pIC50 (Mahlavu; [8]) was 5.17.

With `O=C(/C=C/c1ccccc1)c1ccccc1` [compound 9] the pIC50 (Huh7 [1]; [4]) was 4.79, the pIC50 (Huh7 [1]; [5]) was 4.94 and the “phosphorylated Rb protein levels” value [2] was “decreased significantly”. It also gave a pIC50 (Huh7 [3]; Huh-7, 72 h) of 5.28, a pIC50 (HepG2) of 5.14 and a pIC50 (FOCUS) of 5.48. It also gave a pIC50 (Mahlavu; [7]) of 5.31 and a pIC50 (Mahlavu; [8]) of 5.17.

In the case of `COc1ccc(C(=O)/C=C/c2cccc([N+](=O)[O-])c2)cc1` [compound 1], the pIC50 (Huh7 [1]; [4]) was 5.43, the pIC50 (Huh7 [1]; [5]) was 5.28 and the pIC50 (Huh7 [3]; [6]) was > 5.60. The pIC50 (HepG2) was 5.38, the pIC50 (FOCUS) was 5.31 and the pIC50 (Mahlavu; [7]) was 5.92. For the same compound, the pIC50 (Mahlavu; [8]) was 5.64.
